What was measured:
[1] = test system: barnyard grass; test: Test Example 5: herbicidal effect by foliage application, plastic box (Table 20, symbol H); type: in vivo, barnyard grass (Echinochloa crus-galli); details: foliage application; for herbicidal effect on H: barnyard grass (criteria 0-5): 320 g/ha, evaluated three weeks after application
Outline: (§1)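 Post-emergence foliar test in sterilized diluvial soil. Compound applied as water-diluted emulsion at a predetermined rate to 14-day-old plants; evaluation at three weeks.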

[2] = test system: Italian ryegrass; test: Test Example 5: herbicidal effect by foliage application, plastic box (Table 20, symbol K); type: in vivo, Italian ryegrass (Lolium multiflorum); details: foliage application; for herbicidal effect on K: Italian ryegrass (criteria 0-5): 320 g/ha, evaluated three weeks after application
Outline: as §1

[3] = test system: chickweed; test: Test Example 5: herbicidal effect by foliage application, plastic box (Table 20, symbol P); type: in vivo, common chickweed (Stellaria media); details: foliage application; for herbicidal effect on P: chickweed (criteria 0-5): 320 g/ha, evaluated three weeks after application
Outline: as §1

[4] = test system: windgrass; test: Test Example 5: herbicidal effect by foliage application, plastic box (Table 20, symbol L); type: in vivo, windgrass (Apera spica-venti); details: foliage application; for herbicidal effect on L: windgrass (criteria 0-5): 320 g/ha, evaluated three weeks after application
Outline: as §1

[5] = test system: redroot pigweed; test: Test Example 5: herbicidal effect by foliage application, plastic box (Table 20, symbol N); type: in vivo, redroot pigweed (Amaranthus retroflexus); details: foliage application; for herbicidal effect on N: redroot pigweed (criteria 0-5): 320 g/ha, evaluated three weeks after application
Outline: as §1

[6] = test system: velvetleaf; test: Test Example 5: herbicidal effect by foliage application, plastic box (Table 20, symbol M); type: in vivo, velvetleaf (Abutilon theophrasti); details: foliage application; for herbicidal effect on M: velvetleaf (criteria 0-5): 320 g/ha, evaluated three weeks after application
Outline: as §1

[7] = test system: southern crabgrass; test: Test Example 5: herbicidal effect by foliage application, plastic box (Table 20, symbol F); type: in vivo, southern crabgrass (Digitaria ciliaris); details: foliage application; for herbicidal effect on F: southern crabgrass (criteria 0-5): 320 g/ha, evaluated three weeks after application
Outline: as §1

[8] = test system: persian speedwell; test: Test Example 5: herbicidal effect by foliage application, plastic box (Table 20, symbol R); type: in vivo, Persian speedwell (Veronica persica); details: foliage application; for herbicidal effect on R: persian speedwell (criteria 0-5): 320 g/ha, evaluated three weeks after application
Outline: as §1

[9] = test system: wild oat; test: Test Example 5: herbicidal effect by foliage application, plastic box (Table 20, symbol I); type: in vivo, wild oat (Avena fatua); details: foliage application; for herbicidal effect on I: wild oat (criteria 0-5): 320 g/ha, evaluated three weeks after application
Outline: as §1

[10] = test system: green foxtail; test: Test Example 5: herbicidal effect by foliage application, plastic box (Table 20, symbol G); type: in vivo, green foxtail (Setaria viridis); details: foliage application; for herbicidal effect on G: green foxtail (criteria 0-5): 320 g/ha, evaluated three weeks after application
Outline: as §1

[11] = test system: blackgrass; test: Test Example 5: herbicidal effect by foliage application, plastic box (Table 20, symbol J); type: in vivo, blackgrass (Alopecurus myosuroides); details: foliage application; for herbicidal effect on J: blackgrass (criteria 0-5): 320 g/ha, evaluated three weeks after application
Outline: as §1

[12] = test system: lambsquarters; test: Test Example 5: herbicidal effect by foliage application, plastic box (Table 20, symbol O); type: in vivo, lambsquarters (Chenopodium album); details: foliage application; for herbicidal effect on O: lambsquarters (criteria 0-5): 320 g/ha, evaluated three weeks after application
Outline: as §1

[13] = AAH 320 g/ha, three weeks after application

Compound | herbicidal effect on H: barnyard grass (criteria 0-5) [1] | herbicidal effect on K: Italian ryegrass (criteria 0-5) [2] | herbicidal effect on P: chickweed (criteria 0-5) [3] | herbicidal effect on L: windgrass (criteria 0-5) [4] | herbicidal effect on N: redroot pigweed (criteria 0-5) [5] | herbicidal effect on M: velvetleaf (criteria 0-5) [6] | herbicidal effect on F: southern crabgrass (criteria 0-5) [7] | herbicidal effect on R: persian speedwell (criteria 0-5) [8] | herbicidal effect on I: wild oat (criteria 0-5) [9] | herbicidal effect on G: green foxtail (criteria 0-5) [10] | herbicidal effect on J: blackgrass (criteria 0-5) [11] | herbicidal effect on O: lambsquarters (criteria 0-5) [12] | further results
CCCC(=O)Oc1c(C)nn(C)c(=O)c1-c1c(-c2ccccc2SC)sc2ccc(C)cc12 [2-143] | 0 (Herbicidal rate of 5% or less (almost no effect)) | 0 (Herbicidal rate of 5% or less (almost no effect)) | 3 (Herbicidal rate of 40% or more and less than 70%) | 0 (Herbicidal rate of 5% or less (almost no effect)) | 0 (Herbicidal rate of 5% or less (almost no effect)) | 0 (Herbicidal rate of 5% or less (almost no effect)) | 0 (Herbicidal rate of 5% or less (almost no effect)) | 0 (Herbicidal rate of 5% or less (almost no effect)) | 0 (Herbicidal rate of 5% or less (almost no effect)) | 0 (Herbicidal rate of 5% or less (almost no effect)) | 0 (Herbicidal rate of 5% or less (almost no effect)) | 0 (Herbicidal rate of 5% or less (almost no effect)) | –
Cc1nn(C)c(=O)c(-c2c(-c3ccc(OCC(=O)NCC(F)(F)F)cc3)sc3ccccc23)c1O [1-145] | – | – | – | – | – | – | – | – | – | – | – | – | H: barnyard grass, herbicidal effect [1, 13]: 0 (Herbicidal rate of 5% or less (almost no effect)); K: Italian ryegrass, herbicidal effect [2, 13]: 0 (Herbicidal rate of 5% or less (almost no effect)); P: chickweed, herbicidal effect [3, 13]: 3 (Herbicidal rate of 40% or more and less than 70%); L: windgrass, herbicidal effect [4, 13]: 0 (Herbicidal rate of 5% or less (almost no effect)); N: redroot pigweed, herbicidal effect [5, 13]: 0 (Herbicidal rate of 5% or less (almost no effect)); M: velvetleaf, herbicidal effect [6, 13]: 0 (Herbicidal rate of 5% or less (almost no effect)); F: southern crabgrass, herbicidal effect [7, 13]: 0 (Herbicidal rate of 5% or less (almost no effect)); R: persian speedwell, herbicidal effect [8, 13]: 0 (Herbicidal rate of 5% or less (almost no effect)); I: wild oat, herbicidal effect [9, 13]: 0 (Herbicidal rate of 5% or less (almost no effect)); G: green foxtail, herbicidal effect [10, 13]: 0 (Herbicidal rate of 5% or less (almost no effect)); J: blackgrass, herbicidal effect [11, 13]: 0 (Herbicidal rate of 5% or less (almost no effect)); O: lambsquarters, herbicidal effect [12, 13]: 0 (Herbicidal rate of 5% or less (almost no effect))
CCCC(=O)Oc1c(C)nn(C)c(=O)c1-c1c(-c2ccc(F)cc2OC)sc2ccc(-c3ccc(OC(C)C)cc3)cc12 [2-169] | 0 (Herbicidal rate of 5% or less (almost no effect)) | 0 (Herbicidal rate of 5% or less (almost no effect)) | 0 (Herbicidal rate of 5% or less (almost no effect)) | 0 (Herbicidal rate of 5% or less (almost no effect)) | 2 (Herbicidal rate of 20% or more and less than 40%) | 0 (Herbicidal rate of 5% or less (almost no effect)) | 0 (Herbicidal rate of 5% or less (almost no effect)) | 0 (Herbicidal rate of 5% or less (almost no effect)) | 0 (Herbicidal rate of 5% or less (almost no effect)) | 0 (Herbicidal rate of 5% or less (almost no effect)) | 0 (Herbicidal rate of 5% or less (almost no effect)) | 3 (Herbicidal rate of 40% or more and less than 70%) | –

— patent US20230085307A1, “PYRIDAZINONE COMPOUND AND HERBICIDE” (NISSAN CHEMICAL CORPORATION, priority 2019, published 2023)
